Laboratory results reported in patent US8436016B2, “Fused heterocyclic M1 receptor positive allosteric modulators” (priority 2008, dated 2013).

target: T1, acetylcholine muscarinic M1 receptor (Homo sapiens, UniProt P11229); assay: muscarinic FLIPR assay: potentiation of acetylcholine (EC20)-stimulated intracellular Ca2+ in CHOnfat/hM1 cells; assay type: cell-based; details: not given
T1 construct: expressed in transfected cells; host or cells: CHOnfat (CHO cells with an NFAT reporter background) expressing hM1, kept under Geneticin selection
T1 sequence (P11229 1-460): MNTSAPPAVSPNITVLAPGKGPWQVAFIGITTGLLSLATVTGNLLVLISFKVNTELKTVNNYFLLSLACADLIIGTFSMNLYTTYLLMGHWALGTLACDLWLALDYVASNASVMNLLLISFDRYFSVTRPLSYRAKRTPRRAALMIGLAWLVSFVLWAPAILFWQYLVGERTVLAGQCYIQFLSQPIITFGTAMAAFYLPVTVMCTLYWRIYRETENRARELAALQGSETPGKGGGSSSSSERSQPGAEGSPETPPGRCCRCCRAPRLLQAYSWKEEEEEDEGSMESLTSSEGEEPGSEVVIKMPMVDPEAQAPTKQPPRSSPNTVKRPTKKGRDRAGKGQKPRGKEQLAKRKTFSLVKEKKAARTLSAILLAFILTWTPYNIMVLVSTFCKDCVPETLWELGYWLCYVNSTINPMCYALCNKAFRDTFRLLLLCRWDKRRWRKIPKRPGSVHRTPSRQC
Description: The assay studies the effect of one or several concentrations of test compounds on basal or acetylcholine-stimulated Ca^2+ levels using FLIPR.
Compounds are prepared and subjected to a preincubation period of 4 min. Thereafter, a single EC20 concentration of acetylcholine is added to each well (3 nM final). The intracellular Ca^2+ level of each sample is measured and compared to an acetylcholine control to determine any modulatory activity.
Cells: CHOnfat/hM1, hM2, hM3 or hM4 cells are plated 24 hr before the assay at a density of 18,000 cells/well (100 μL) in a 384 well plate. CHOnfat/hM1 and CHOnfat/hM3 Growth Medium: 90% DMEM (Hi Glucose); 10% HI FBS; 2 mM L-glutamine; 0.1 mM NEAA; Pen-Strep; and 1 mg/ml Geneticin, are added. For M2Gqi5CHOnfat and M4Gqi5CHOnfat cells, an additional 600 μg/ml hygromycin is added.
Buffers. […] Dye Loading Buffer: Assay Buffer plus 1% Fetal Bovine Serum and Fluo-4AM/Pluronic Acid Mixture. […] 20% Pluronic Acid Solution stock, with a concentration of 0.04% in Buffer, 0.02% in Assay.
65 μL of 2 mM Fluo-4AM are mixed with 130 μL of 20% Pluronic Acid. The resulting solution and 650 μL FBS is added to the assay buffer for a total volume of 65 mL. Positive Controls: 4-Br-A23187: 10 mM in DMSO; final concentration 10 μM. Acetylcholine: 10 mM in water, working stock at both 20 μM and 30 μM in assay buffer, final concentration of 10 μM. This is used to check the maximum stimulation of the CHOK1/hM1 cells. 20 μM (2×) acetylcholine is added in the preincubation part of the assay, and the 30 μM (3×) stock is added in the second part. (EC20)Acetylcholine: 10 mM in water, working stock of 9 nM (3×), and final concentration in assay is 3 nM. This is used after the preincubation with test compounds. Addition of the EC20 Acetylcholine to each well with a test compound will ascertain any modulator activity. 24 wells contain 3 nM Acetylcholine alone as a control.
Determining Activity of Putative Compounds:
Four 96-well plates are combined into a 384-well plate using Mosquito Nanolitre Pipetting System by transferring 1 μl of serial diluted compounds to each well, and 1 mM acetylcholine (100× stock concentration) were added as a control. Using Term, 49 μl assay buffer is added to each well of the 384-well plate right before assay.
In a 96-well Whatman 2 ml Uniplate, 9 nM Acetylcholine (3×) is pipetted into wells corresponding to the screening compounds and into control wells. The 30 μM acetylcholine control (3×) is added into control wells and the 3× agonist plate is transferred into a 384-well plate.
Cells are washed three times with 100 μL of buffer, leaving 30 μL of buffer in each well. Using Multimek, 30 μL of Dye Loading Buffer is added into each well and incubated at 37° C., 5% CO2 for up to one hr.
After 60 min, the cells are washed three times with 100 μL of buffer, leaving 30 μL of buffer in each well. The cell plate, screening plate, and agonist addition plates are placed on the platform in the FLIPR and the door is closed. A signal test to check background fluorescence and basal fluorescence signal is performed. Laser intensity is adjusted if necessary.
4 min of preincubation with the test compounds is provided to determine any agonist activity on the M1 receptor by comparison to the 1 mM acetylcholine control. After preincubation, the EC20 value of acetylcholine (3 nM final) is added to determine any modulator activity.
The inflection point is calculated from the FLIPR values, and is a measure of activity.

SMILES	EC50
O=C(O)c1cn(Cc2ccc3c(c2)OCCO3)c2cccc(F)c2c1=O [Example 27]	0.029 µM
O=C(O)c1cn(Cc2cc3ccccc3[nH]2)c2cccc(F)c2c1=O [Example 58]	0.656 µM
O=C1Cc2cc(Cn3cc(C(=O)O)c(=O)c4c(F)cccc43)ccc2N1 [Example 53]	0.038 µM
O=C(O)c1cn(Cc2ccc3[nH]ccc3c2)c2cccc(F)c2c1=O [Example 33]	0.093 µM
O=C(O)c1cn(Cc2ccc3ccccc3c2)c2c(F)cccc2c1=O [Example 4]	0.08 µM
Cn1ncc2cc(Cn3cc(C(=O)O)c(=O)c4c(F)cccc43)ccc21 [Example 1, 5-Fluoro-1-[(1-methyl-1H-indazol-5-yl)methyl]-4-oxo-1,4-dihydroquinoline-3-carboxylic acid]	0.072 µM

same assay, conditions: CHOnfat/hM1 cells, FLIPR, 4 min preincubation, then EC20 acetylcholine (3 nM final); read-out: IP Value (inflection point)

SMILES	EC50
O=C(O)c1cn(Cc2ccc3nccnc3c2)c2cccc(F)c2c1=O [Example 15]	0.501 µM
O=C(O)c1cn(Cc2ccc3cc(F)ccc3c2)c2cccc(F)c2c1=O [Example 3, 5-Fluoro-1-[(6-fluoro-2-naphthyl)methyl]-4-oxo-1,4-dihydroquinoline-3-carboxylic acid]	0.261 µM

Results, then the compound that gave them:

EC50	SMILES
1.3 µM	O=C(O)c1cn(Cc2cccc3ccncc23)c2cccc(F)c2c1=O [Example 73]
0.147 µM	O=C(O)c1cn(Cc2cc3ccccc3s2)c2cccc(F)c2c1=O [Example 56]
0.229 µM	O=C(O)c1cn(Cc2ccc3[nH]cnc3c2)c2cccc(F)c2c1=O [Example 42]
